{
  "source": "patent US8609870B2",
  "about": "“Treating various disorders using TrkB agonists” (Emory University, priority 2008, dated 2013)",
  "key": {"hippocampal neurons [1]": {"system": "hippocampal neurons", "assay": "Oxygen-glucose deprivation (OGD) apoptosis in hippocampal neurons", "assay_type": "cell-based"}, "TrkA or TrkB": {"system": "TrkA or TrkB", "assay": "RT-PCR analysis of Trk receptors in mouse brain", "assay_type": "in vivo", "conditions": "mouse brain upon deoxygedunin treatment"}, "adult male rats": {"system": "adult male rats", "assay": "Transient middle cerebral artery occlusion (MCAO) stroke model", "conditions": "2 h MCAO"}, "TrkB": {"biological_target": "T1, TrkB (Homo sapiens, UniProt Q16620)", "T1 construct": "expressed in transfected cells; host or cells: HEK293", "assay": "TrkB dimerization assay (GST pull-down, transfected HEK293 cells)", "assay_type": "cell-based", "procedure": "HEK293 cells transfected with GST-TrkB and HA-TrkA or TrkB were washed once in PBS, and lysed in 1 ml lysis buffer (50 mM Tris, pH 7.4, 150 mM NaCl, 1 mM EDTA, 0.5% Triton X-100, 1.5 mM Na3VO4, 50 mM NaF, 10 mM sodium pyrophosphate, 10 mM sodium β-glycerophosphate, 1 mM phenylmethylsulfonyl fluoride (PMSF), […], […] leupeptin, […] pepstatin A), and centrifuged for 10 minutes at 14,000×g at 4° C. The supernatant was then transferred to a fresh tube and transfected TrkB receptor was pulled down with glutathione beads. The coprecipitated proteins were resolved on SDS-PAGE. The samples were transferred to a nitrocellular membrane, and immunoblotting analysis was performed with a variety of antibodies.\nBDNF is known to bind the TrkB receptor and provoke its dimerization (Barbacid, J. Neurobiol., 25:1386-1403, 1994; Klein et al, Cell, 66:395-403, 1991). To explore whether an identified active compound triggers TrkB receptor dimerization, HEK293 cells are cotransfected with GST-TrkB and HA-TrkB or HA-TrkA. The cells then are treated with BDNF or an identified active compound (0.5 μM) for 30 minutes. […]"}, "mice": {"system": "mice", "assay": "Forced swim test", "assay_type": "in vivo, mouse", "conditions": "for immobility time: TrkB F616A knockin mice", "procedure": "To explore whether an identified active compound has an antidepressant effect like BDNF, a forced swim test is conducted. Adult male mice (2-3 months old) are randomly submitted, without a pre-swim, to a forced swim test of 6 minutes with immobility recorded in the last 4 minutes. The mice are injected intraperitoneally for 5 days with saline, imipramine (20 mg/kg), amitryptyline (15 mg/kg), or an identified active compound (5 mg/kg). The mice are allowed to adapt to the test room for 2 days, and the mice are placed in a clear glass cylinder with a diameter of 16 cm, half-filled with clear water at 24° C.\nTo investigate whether deoxygedunin mimicked BDNF in suppressing depression-like symptoms, a forced swim test after subchronic treatment of the mice for 5 days with various drugs was conducted. […] To assess whether the behavior responses by 7,8-DHF and deoxygedunin were mediated by TrkB receptor, TrkB F616A knockin mice were used. The transgenic mice were subjected to saline or 1NMPP1 treatment, respectively."}, "hippocampal neurons [2]": {"system": "hippocampal neurons", "assay": "Glutamate-triggered apoptosis in hippocampal neurons (MR(DEVD)2 / condensed nuclei)", "assay_type": "cell-based", "conditions": "0.5 μM preincubated 30 min, then 50 μM glutamate 16 h", "procedure": "To create and test reporter cell lines. In order to identify small molecules that mimic BDNF and activate TrkB, TrkB stably transfected murine cell lines are created. The T48 and T62 cell lines are created by transfecting basal forebrain SN56 cells, which express negligible TrkB, with a TrkB expression construct. To test expression of TrkB, the cells are treated with BDNF, which is predicted to result in strong phosphorylation of Trk-490 and Akt activation in comparison to the TrkA NTR stably expressing T17 cell line indicating expression of TrkB. To test resistance to apoptosis, the SN56 cells and the T48 cell line are either untreated or treated with BDNF, and then are subjected to an apoptotic assay. The apoptotic assay involves treating the cells with 0.75 μM Staurosporine for 9 hours, and 1 hour before completing the experiment, the cells are treated with 10 μM MR (DEVD)2. The cells then are fixed with 4% paraformaldehyde for 15 minutes, washed with phosphate buffered saline (PBS), and incubated with Hoechst 33342 for 10 minutes. Cover slides are washed with PBS, mounted, and then the cells are examined using a fluorescent microscope to see which cells turn red upon caspase cleavage.\nTo compare the apoptosis inhibitory activity of identified active compounds, the compounds are preincubated with SN56 and T48 cells, and subsequently are subjected to the fluorescent apoptotic assay as described above. To examine whether these identified active compounds promote neuronal survival, hippocampal neurons are prepared and the cultures are pretreated with the identified active compounds for 30 minutes, followed by treatment with 50 μM glutamate for 16 hours.\nUsing a cell-based screen as described above in Example 1 (based on the anti-apoptotic action of TrkB signaling) and the chemical library from the Spectrum Collection (described above), 66 positive hits were generated, four of which were gedunin derivatives. […] In this assay, neurons with both cleaved caspase (MR (DEVD)2 red cells) and condensed nuclei (DAPI staining) were counted as apoptotic cells. […]"}},
  "data": [
    {"smiles": "CC(=O)O[C@@H]1C[C@H]2C(C)(C)C(=O)C=C[C@]2(C)[C@H]2CC[C@]3(C)C(=CC(=O)O[C@H]3c3ccoc3)[C@@]21C", "note": "[deoxygedunin]", "values": [
      {"measurement": "protective effects on hippocampal neurons under OGD", "setting": "hippocampal neurons [1]; apoptotic ratio compared to BDNF and DMSO", "result": "potent protective effects"},
      {"measurement": "titration assay under OGD", "setting": "hippocampal neurons [1]; dose titration", "result": "protects neurons in a dose-dependent manner"},
      {"measurement": "change of TrkA or TrkB (RT-PCR)", "setting": "TrkA or TrkB", "result": "no change of TrkA or TrkB"},
      {"measurement": "survival of ischemic insult and treatment", "setting": "adult male rats; 5 mg/kg", "result": "All animals included in the study survived"},
      {"measurement": "infarct volumes (TTC stained sections)", "setting": "adult male rats; 5 mg/kg 5 minutes prior to reperfusion, 24 hours after MCAO", "result": "significantly reduced infarct volumes"},
      {"measurement": "TrkB dimerization", "setting": "TrkB", "result": "robustly provoked TrkB dimerization with an effect even stronger than BDNF"},
      {"measurement": "immobility time", "setting": "mice; TrkB blocked by 1NMPP1", "result": "did not have a significant effect"},
      {"measurement": "immobility time", "setting": "mice; saline group", "result": "substantially reduced the immobility time"},
      {"measurement": "swimming immobility", "setting": "mice; mice, subchronic treatment 5 days, imipramine 20 mg/kg, deoxygedunin 5 mg/kg", "result": "reduced the immobility"},
      {"measurement": "protective effect (apoptosis inhibitory activity)", "setting": "hippocampal neurons [2]", "result": "most robust protective effect"}
    ]}
  ]
}
